Experimental data taken from patent US6451797B1, “Muscarinic antagonists” (priority 1998, dated 2002).
Counter-ions that a name gives are not always drawn.

| SMILES | melting point |
| --- | --- |
| C[C@@H]1CN(C2CCN(C(=O)c3cccc4c(F)cc(F)cc34)CC2)CCN1[C@@H](C)c1ccc(S(=O)(=O)c2ccc3c(c2)OCO3)nc1 | 172 to 174 °C |
| C[C@@H]1CN(C2CCN(C(=O)c3cccc(Cl)c3N)CC2)CCN1[C@@H](C)c1ccc(S(=O)(=O)c2ccc3c(c2)OCO3)nc1 | 184 to 186 °C |
| Cc1cccc(C)c1C(=O)N1CCC(N2CCN([C@@H](C)c3ccc(S(=O)(=O)c4ccc5c(c4)OCO5)nc3)[C@H](C)C2)CC1 | 165 °C |

More lines, now with the values ahead:

| melting point | SMILES |
| --- | --- |
| 187 to 188 °C | C[C@@H]1CN(C2CCN(C(=O)c3ccccc3N)CC2)CCN1[C@@H](C)c1ccc(S(=O)(=O)c2ccc3c(c2)OCO3)nc1 |
| 174 °C | C[C@@H]1CN(C2CCN(C(=O)c3cccc4cccnc34)CC2)CCN1[C@@H](C)c1ccc(S(=O)(=O)c2ccc3c(c2)OCO3)nc1 |
| 144 to 148 °C (dec.) | CNc1ccccc1C(=O)N1CCC(N2CCN(Cc3ccc(S(=O)(=O)c4cccc(C)c4)nc3)[C@H](C)C2)CC1 (as salt: HCl) |
